Where two headings read alike, the source gives them in different places.
Target: T1, KSP motor domain (Homo sapiens, UniProt P52732)
T1 sequence (P52732 18-359 limits assumed): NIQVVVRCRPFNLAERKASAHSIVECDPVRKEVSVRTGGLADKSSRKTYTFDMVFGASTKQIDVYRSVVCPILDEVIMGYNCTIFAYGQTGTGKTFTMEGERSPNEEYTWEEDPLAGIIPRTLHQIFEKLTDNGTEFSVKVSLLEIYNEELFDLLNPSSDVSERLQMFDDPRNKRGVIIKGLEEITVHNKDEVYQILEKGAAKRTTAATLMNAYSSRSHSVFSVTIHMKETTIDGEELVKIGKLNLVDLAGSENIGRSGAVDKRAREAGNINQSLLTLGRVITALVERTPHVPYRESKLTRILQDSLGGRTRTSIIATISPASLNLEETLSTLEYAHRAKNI
Assay: biochemical

[1] = KSP inhibitory activity, end-point assay, class symbols (Table 1), read-out: IC50
[2] = exact IC50 values, end-point assay (Table 2), read-out: IC50
[3] = KSP inhibitory activity, end-point assay, class symbols (Table 1)

Compound	IC50 [1] [nM]	also measured
CC(C)(C)C1CCc2nc3sc(C#N)cc3cc2C1 (racemic) [Example 58, 6-tert-butyl-5,6,7,8-tetrahydrothieno[2,3-b]quinoline-2-carbonitrile]	100 to 1000	
CC(C)(C)C1CCc2nc3sc(C#N)cc3cc2C1 (single isomer, unassigned) [Example 62]	100 to 1000	
CC(C)(C)C1CCc2nc3sc(C#N)cc3cc2C1 (single isomer, unassigned) [Example 63]	< 100	IC50 [2]: 40 nM
C[Si](C)(C)C1CCc2nc3sc(C(N)=O)cc3cc2C1 (single isomer, unassigned) [Example 189, 5,6,8-Tetrahydro-6-(Trimethylsilyl)thieno[2,3-b]quinoline-2-Carboxamide]		IC50 (IC50 (nM), KSP inhibitory activity, end-point assay, class symbols (Table 1)): < 100 nM; IC50 (IC50 (nM), exact IC50 values, end-point assay (Table 2)): 50 nM
CC(C)(C)C1CCc2nc3sc(C(N)=O)cc3cc2C1 (single isomer, unassigned; (+)) [Example 68, (+)-6-(1,1-dimethylethyl)-5,6,7,8-tetrahydrothieno[2,3-b]quinoline-2-carboxamide]	< 100	IC50 [2]: 20 nM
CC(C)(C)C1CCc2nc3sc(C(N)=O)cc3cc2C1 (single isomer, unassigned; (-)) [Example 67, (−)-6-(1,1-dimethylethyl)-5,6,7,8-tetrahydrothieno[2,3-b]quinoline-2-carboxamide]	100 to 1000	
CC(CO)NC(=O)c1sc2nc3c(cc2c1N)CC(C(C)(C)C)CC3 (stereo in doubt) [Example 192, 3-Amino-6-(1,1-Dimethylethyl)-5,6,7,8-Tetrahydro-N-(2-Hydroxy-1(S)-Methylethyl)thieno[2,3-b]quinoline-2-Carboxamide]	1000 to 10000	
CC(C)C1CCc2nc3sc(C#N)c(N)c3cc2C1 (centres unmarked) [Example 1, 3-amino-6-isopropyl-5,6,7,8-tetrahydrothieno[2,3-b]quinoline-2-carbonitrile]	1000 to 10000	
N#Cc1sc2nc3c(cc2c1N)CC(c1ccccc1)CC3 (centres unmarked) [Example 3]	> 10000	
N#Cc1sc2nc3c(cc2c1N)CC(C12CC4CC(CC(C4)C1)C2)CC3 (centres unmarked) [Example 4]	> 10000	
CCC(CC)(CC)C1CCc2nc3sc(C#N)c(N)c3cc2C1 (centres unmarked) [Example 5]	1000 to 10000	
CC1(C2CCc3nc4sc(C#N)c(N)c4cc3C2)CCCC1 (centres unmarked) [Example 6]	100 to 1000	
CC(C)C(C)(C)C1CCc2nc3sc(C#N)c(N)c3cc2C1 (centres unmarked) [Example 7]	> 10000	
CC(C)CC(C)(C)C1CCc2nc3sc(C#N)c(N)c3cc2C1 (centres unmarked) [Example 8]	> 10000	
CC(C)(C)C(C)(C)C1CCc2nc3sc(C#N)c(N)c3cc2C1 (centres unmarked) [Example 9]	1000 to 10000	
CCCC(C)(C)C1CCc2nc3sc(C#N)c(N)c3cc2C1 (centres unmarked) [Example 10]	100 to 1000	
CC(C)(C)CC(C)(C)C1CCc2nc3sc(C#N)c(N)c3cc2C1 (centres unmarked) [Example 11]	> 10000	
CCC(C)(C)C1CCc2nc3sc(C#N)c(N)c3cc2C1 (centres unmarked) [Example 12]	< 100	
CC1CCc2nc3sc(C#N)c(N)c3cc2C1 (centres unmarked) [Example 13]	> 10000	
N#Cc1sc2nc3c(cc2c1N)CC(C(F)(F)F)CC3 (centres unmarked) [Example 14]	1000 to 10000	
CCCC1CCc2nc3sc(C#N)c(N)c3cc2C1 (centres unmarked) [Example 15]	1000 to 10000	
CCCC1(CCC)CCc2nc3sc(C#N)c(N)c3cc2C1 [Example 16]	> 10000	
CCC1CCc2nc3sc(C#N)c(N)c3cc2C1 (centres unmarked) [Example 17]	1000 to 10000	
N#Cc1sc2nc3c(cc2c1N)CC(C1CCCCC1)CC3 (centres unmarked) [Example 18]	> 10000	
CCCCCC1CCc2nc3sc(C#N)c(N)c3cc2C1 (centres unmarked) [Example 19]	> 10000	
CC(C)CCC1CCc2nc3sc(C#N)c(N)c3cc2C1 (centres unmarked) [Example 20]	> 10000	
CCC(C)C1CCc2nc3sc(C#N)c(N)c3cc2C1 (centres unmarked) [Example 21]	1000 to 10000	

Compound	IC50 [1] [nM]	also measured
N#Cc1sc2nc3c(cc2c1N)CC(C1CCCC1)CC3 (centres unmarked) [Example 22]	> 10000	
CC(C1CCc2nc3sc(C#N)c(N)c3cc2C1)C(C)(C)C (centres unmarked) [Example 23]	> 10000	
CC(C)C(C(C)C)C1CCc2nc3sc(C#N)c(N)c3cc2C1 (centres unmarked) [Example 24]	1000 to 10000	
CC(C)(C)CC1CCc2nc3sc(C#N)c(N)c3cc2C1 (centres unmarked) [Example 25]	100 to 1000	
CCC(CC)C1CCc2nc3sc(C#N)c(N)c3cc2C1 (centres unmarked) [Example 26]	100 to 1000	
CC(C)CC1CCc2nc3sc(C#N)c(N)c3cc2C1 (centres unmarked) [Example 27]	1000 to 10000	
CCC(C(C)C)C1CCc2nc3sc(C#N)c(N)c3cc2C1 (centres unmarked) [Example 28]	100 to 1000	
CCC(C1CCc2nc3sc(C#N)c(N)c3cc2C1)C(C)(C)C (centres unmarked) [Example 29]	> 10000	
CC(C)C(C)C1CCc2nc3sc(C#N)c(N)c3cc2C1 (centres unmarked) [Example 30]	100 to 1000	
N#Cc1sc2nc3c(cc2c1N)CC(Cc1ccccc1)CC3 (centres unmarked) [Example 31]	> 10000	
CCCCC1CCc2nc3sc(C#N)c(N)c3cc2C1 (centres unmarked) [Example 32]	> 10000	
C/C=C/C=C1\CCc2nc3sc(C#N)c(N)c3cc2C1 [Example 35]	> 10000	
CC(C)=C/C=C1\CCc2nc3sc(C#N)c(N)c3cc2C1 [Example 36]	> 10000	
N#Cc1sc2nc3c(cc2c1N)C/C(=C/C1CC1)CC3 [Example 37]	> 10000	
CCC(C)(C)C1Cc2cc3c(N)c(C#N)sc3nc2C1 (centres unmarked) [Example 38]	1000 to 10000	
CC(C)(C)C1CCCc2nc3sc(C#N)c(N)c3cc2C1 (centres unmarked) [Example 40]	< 100	IC50 [2]: 60 nM
CC(C)(C)C1CCc2cc3c(N)c(C#N)sc3nc2CC1 (centres unmarked) [Example 41]	1000 to 10000	
CC(C)(C)OC(=O)N1CCc2nc3sc(C#N)c(N)c3cc2C1 [Example 42]	> 10000	
CC1(C2CCc3nc4sc(C#N)c(N)c4cc3C2)CC1 (centres unmarked) [Example 43]	100 to 1000	
N#Cc1sc2nc3c(cc2c1N)CC1(CC3)OCCO1 [Example 44]	> 10000	
N#Cc1sc2nc3c(cc2c1N)CCCC3 [Example 45]	> 10000	
CC1Cc2nc3sc(C#N)c(N)c3cc2C(C)C1 (centres unmarked) [Example 46]	> 10000	
CC1(C)CCc2nc3sc(C#N)c(N)c3cc2C1 [Example 47]	> 10000	
CC1(C)Cc2nc3sc(C#N)c(N)c3cc2C(C)(C)C1 [Example 48]	> 10000	
CCCC1CCc2cc3c(N)c(C#N)sc3nc2C1 (centres unmarked) [Example 49]	> 10000	
N#Cc1sc2nc3c(cc2c1N)CCC(C(F)(F)F)C3 (centres unmarked) [Example 50]	> 10000	
CC(C)C1CCc2cc3c(N)c(C#N)sc3nc2C1 (centres unmarked) [Example 51]	> 10000	

Compound	IC50 [1] [nM]	also measured
CCCC1CCCc2cc3c(N)c(C#N)sc3nc21 (centres unmarked) [Example 52]	> 10000	
N#Cc1sc2nc3c(cc2c1N)CC(=O)CC3 [Example 53]	> 10000	
CCC(C)(C)C1CCc2nc3sc(C#N)c(N)c3c(SC)c2C1 (centres unmarked) [Example 54]	> 10000	
N#Cc1sc2nc3c(cc2c1N)CN(CC1CC1)CC3 [Example 55]	> 10000	
N#Cc1sc2nc3c(cc2c1N)CN(Cc1ccccc1)CC3 [Example 56]	> 10000	
N#Cc1sc2nc3c(cc2c1N)CN(CCC(F)(F)F)CC3 [Example 57]	> 10000	
CCC(C)(C)C1CCc2nc3sc(C#N)cc3cc2C1 (centres unmarked) [Example 59]	< 100	IC50 [2]: 55 nM
CC(C)(C)C1CCCc2nc3sc(C#N)cc3cc2C1 (centres unmarked) [Example 60]	< 100	
CC(C)(C)C1CCc2cc3cc(C#N)sc3nc2CC1 (centres unmarked) [Example 61]	1000 to 10000	
CC(C)(C)C1CCc2nc3sc(C(N)=O)cc3cc2C1 (centres unmarked) [Example 64, 6-tert-butyl-5,6,7,8-tetrahydrothieno[2,3-b]quinoline-2-carboxylic acid amide]	< 100	
CC(C)(C)C1CCCc2nc3sc(C(N)=O)cc3cc2C1 (centres unmarked) [Example 65]	< 100	IC50 [2]: 62 nM
CC(C)(C)C1CCc2cc3cc(C(N)=O)sc3nc2CC1 (centres unmarked) [Example 66]	1000 to 10000	
CC(C)(C)C1CCc2nc3sc(C(=N)N)cc3cc2C1 (centres unmarked) [Example 69, 6-tert-butyl-5,6,7,8-tetrahydrothieno[2,3-b]quinoline-2-carboxamidine]		IC50 (nM) [3]: B/C
CC(C)(C)C1CCc2nc3sc(C(N)=S)cc3cc2C1 (centres unmarked) [Example 70, 6-tert-butyl-5,6,7,8-tetrahydrothieno[2,3-b]quinoline-2-carbothioic acid amide]	100 to 1000	
CCC(C)(C)C1CCc2c(cc3cc(C#N)sc3[n+]2[O-])C1 (centres unmarked) [Example 71]	1000 to 10000	
CCC(C)(C)C1CCc2nc3sc(-c4nn[nH]n4)cc3cc2C1 (centres unmarked) [Example 72]	1000 to 10000	
CC(C)(C)C1CCc2nc3sc(C(=O)O)cc3cc2C1 (centres unmarked) [Example 73, 6-tert-Butyl-5,6,7,8-tetrahydrothieno[2,3-b]quinoline-2-carboxylic acid]	> 10000	
CC(CO)NC(=O)c1cc2cc3c(nc2s1)CCC(C(C)(C)C)C3 (centres unmarked) [Example 76]	1000 to 10000	
CC(C)(C)C1CCc2nc3sc(C(=O)Nc4ccccc4)cc3cc2C1 (centres unmarked) [Example 77]	> 10000	
CC(C)(C)C1CCc2nc3sc(C(=O)NCc4ccccc4)cc3cc2C1 (centres unmarked) [Example 78]	> 10000	
CCNC(=O)c1cc2cc3c(nc2s1)CCC(C(C)(C)C)C3 (centres unmarked) [Example 79]	1000 to 10000	
CN(C)C(=O)c1cc2cc3c(nc2s1)CCC(C(C)(C)C)C3 (centres unmarked) [Example 80]	> 10000	
CC(C)(C)C1CCc2nc3sc(C(=O)NCC(N)=O)cc3cc2C1 (centres unmarked) [Example 81]		IC50 (nM) [3]: A/B; IC50 (number printed in brackets under a borderline class (A/B, B/C) in Table 1 of b1103, read-out: IC50): 100 nM
CC(CO)NC(=O)c1cc2cc3c(nc2s1)CCC(C(C)(C)C)C3 (centres unmarked) [Example 82]	1000 to 10000	
CC(CO)NC(=O)c1cc2cc3c(nc2s1)CCC(C(C)(C)C)C3 (centres unmarked) [Example 83]	100 to 1000	
